# “And” between values parts separate entries of the source, which are not always exact repeats. Identical values can stand only once.
# Tested on: placental gene expression
# Experiment: Placental gene expression (Affymetrix Rat Genome Chip 230.2) after SSRI (fluoxetine) exposure throughout gestation
# Assay type: in vivo
# Protocol: Gene expression data from pregnant rats under different forms of dietary restriction was gathered. […] (N=8) • Group 2 (CR50): Rats Given 50% of their Normal Daily Intake of Food. (N=5) • Group 3 (CR70): Rats Given 70% of their Normal Daily Intake of Food. […] (N=6) Placentas from the rats of each Group were harvested on Day 21 of gestation. RNA was extracted and gene expression was measured based on hybridization of RNA to Affymetrix Rat Genome Chips™ (230.2) (Affymetrix, Santa Clara, Calif.).
# In order to determine whether placental gene expression profiling can be used to identify other prenatal exposures such as toxicants and drugs, a group of rats with drug exposure was monitored as described above. […] As with control, CR50, CR70, and HF groups, placentas from the mothers were sampled after 21 days of gestation and gene expression monitored utilizing an Affymetrix Rat Genome Chip.
# [1] = placenta, SSRI exposure during gestation, each SSRI column = one sample
smiles,measurement,setting,value
"CNCCC(Oc1ccc(C(F)(F)F)cc1)c1ccccc1 (centres unmarked) [fluoxetine, Fluoxetine]",Probeset 1391509_at expression,SSRI exposure during gestation,8.436 and 8.44 and 8.929 and 8.687 and 8.508 and 8.574
same,Probeset 1391678_at expression,SSRI exposure during gestation,7.246 and 7.316 and 7.365 and 7.475 and 7.387 and 7.426
same,Probeset 1391962_at expression,SSRI exposure during gestation,3.906 and 3.859 and 3.835 and 3.838 and 3.857 and 3.918
same,Probeset 1392950_at expression,SSRI exposure during gestation,3.887 and 3.884 and 3.809 and 3.812 and 3.82 and 3.885
same,Probeset 1393104_at expression,SSRI exposure during gestation,5.976
same,Probeset 1393428_at expression,SSRI exposure during gestation,6.023 and 6.1025 and 6.34 and 6.137 and 6.165 and 5.935
same,Probeset 1393438_at expression,SSRI exposure during gestation,5.322 and 5.381 and 5.359 and 5.376 and 5.366 and 5.287
same,Probeset 1393539_at expression,SSRI exposure during gestation,5.342 and 5.53 and 5.247 and 5.255 and 5.363 and 5.602
same,Probeset 1393939_at expression,SSRI exposure during gestation,4.456 and 4.322 and 4.388 and 4.385 and 4.239 and 4.386
same,Probeset 1393989_at expression,SSRI exposure during gestation,7.171 and 6.991 and 7.091 and 6.963 and 7.057 and 6.799
same,Probeset 1394343_s_at expression,SSRI exposure during gestation,3.578 and 3.612 and 3.498 and 3.586 and 3.588 and 3.604
same,Probeset 1394383_at expression,SSRI exposure during gestation,6.226 and 6.542 and 6.277 and 5.892 and 6.155 and 6.124
same,Probeset 1394790_at expression,SSRI exposure during gestation,6.517 and 6.383 and 6.546 and 6.377 and 6.521 and 6.433
same,Probeset 1394887_x_at expression,SSRI exposure during gestation,4.369 and 4.298 and 4.253 and 4.258 and 4.269 and 4.251
same,Probeset 1395316_at expression,SSRI exposure during gestation,7.327 and 7.192 and 7.672 and 7.075 and 7.225 and 7.176
same,Probeset 1396130_at expression,SSRI exposure during gestation,3.997 and 4.12 and 3.89 and 3.815 and 3.974 and 3.921
same,Probeset 1397268_at expression,SSRI exposure during gestation,5.157 and 5.261 and 5.068 and 4.99 and 5.173 and 4.92
same,Probeset 1397587_at expression,SSRI exposure during gestation,7.542 and 7.104 and 7.072 and 7.17 and 7.225 and 6.496
same,Probeset 1397676_at expression,SSRI exposure during gestation,4.933 and 5.266 and 5.715 and 5.112 and 5.274 and 5.346
same,Probeset 1397934_at expression,SSRI exposure during gestation,8.299 and 8.221 and 8.122 and 8.187 (2×) and 8.222
same,Probeset 1397956_at expression,SSRI exposure during gestation,6.013 and 6.031 and 6.26 and 5.9 and 5.674 and 6.039
same,Probeset 1398025_at expression,SSRI exposure during gestation,7.379 and 7.277 and 7.364 and 7.102 and 7.172 and 7.095
same,Probeset 1398136_at expression,SSRI exposure during gestation,4.109 and 4.099 and 4.035 and 4.047 and 4.062 and 4.154
same,Probeset 1398208_s_at expression,SSRI exposure during gestation,6.851 and 6.897 and 7.112 and 6.972 and 6.892 and 7.056
same,Probeset 1398486_at expression,SSRI exposure during gestation,4.355 and 4.744 and 5.032 and 4.741 and 4.49 and 5.709
same,Probeset 1398949_at expression,SSRI exposure during gestation,8.606 and 8.576 and 8.664 and 8.941 and 8.595 and 8.818
same,Probeset 1399108_at expression,SSRI exposure during gestation,7.198 and 7.34 and 7.479 and 7.32 and 7.149 and 7.206
same,Probeset 1368198_at expression value,[1],5.473 and 5.314 and 5.48 and 5.486
same,Probeset 1368824_at expression value,[1],10.44 and 10.31 and 10.75 and 10.8577 and 10.39 and 10.8
same,Probeset 1369775_at expression value,[1],9.454 and 9.493 and 9.497 and 9.711 and 9.436 and 9.608
same,Probeset 1370317_at expression value,[1],8.582 and 8.538 and 9.288 and 9.274 and 9.399 and 9.017
same,Probeset 1370918_a_at expression value,[1],11.48 and 11.57 and 11.99 and 11.82 and 11.71 and 11.77
same,Probeset 1371174_s_at expression value,[1],5.805 and 5.865 and 5.868
same,Probeset 1373572_at expression value,[1],8.281 and 8.071 and 8.726 and 8.553 and 8.626 and 8.452
same,Probeset 1373647_at expression value,[1],8.537 and 8.662 and 9.067 and 8.963 and 8.812 and 8.988
same,Probeset 1375178_at expression value,[1],5.304 and 5.523 and 5.583 and 5.437 and 5.444 and 5.62
same,Probeset 1376622_at expression value,[1],8.516 and 8.814 and 8.398 and 8.068 and 8.494 and 8.379
same,Probeset 1376661_at expression value,[1],8.407 and 8.641 and 7.86 and 7.94 and 7.632 and 8.114
same,Probeset 1377365_at expression value,[1],5.846 and 5.083 and 5.532 and 6.127 and 5.643 and 5.687
same,Probeset 1378200_at expression value,[1],3.755 and 3.651 and 3.848 and 3.847 and 4.036 and 3.882
same,Probeset 1378906_at expression value,[1],3.9529 and 3.997 and 3.87 and 3.96 and 3.996 and 3.763
same,Probeset 1379691_at expression value,[1],5.812 and 5.91 and 6.656 and 6.738 and 5.925 and 6.573
same,Probeset 1379822_at expression value,[1],4.961 and 4.831 and 5.299 and 4.848 and 5.227 and 5.084
same,Probeset 1380175_at expression value,[1],4.934 and 4.975 and 4.85 and 4.93 and 4.966 and 4.859
same,Probeset 1381456_at expression value,[1],5.822 and 5.673 and 5.76 and 5.587 and 5.629 and 5.737
same,Probeset 1381492_at expression value,[1],3.536 and 3.464 and 3.556 and 3.687 and 3.747 and 3.65
same,Probeset 1382156_at expression value,[1],4.178 and 4.6 and 4.28 and 4.232 and 4.706 and 4.384
same,Probeset 1382670_at expression value,[1],8.21 and 8.049 and 7.137 and 7.314 and 7.643 and 7.446
same,Probeset 1383054_at expression value,[1],9.672 and 9.605 and 9.479 and 9.484 and 9.46 and 9.528
same,Probeset 1383329_at expression value,[1],5.299 and 5.567 and 5.281 (2×) and 5.561 and 5.339
same,Probeset 1384137_at expression value,[1],3.89 and 3.899
same,Probeset 1384367_at expression value,[1],5.152 and 5.5769 and 5.098 and 5.103 and 5.137 and 5.449
same,Probeset 1384573_at expression value,[1],9.396 and 9.335 and 9.669 and 9.82 and 10.3 and 9.808
same,Probeset 1385074_at expression value,[1],6.094 and 5.703 and 6.069 and 5.946 and 6.214 and 6.404
same,Probeset 1385290_at expression value,[1],5.664 (2×) and 5.339 and 5.511 and 5.599 and 5.438
same,Probeset 1385386_at expression value,[1],4.05 and 4.2 and 4.368 and 4.404 and 4.111 and 4.351
same,Probeset 1385391_at expression value,[1],5.218 and 4.757 and 4.618
same,Probeset 1385790_at expression value,[1],8.262 and 8.645 and 8.217 and 8.093 and 8.254 and 8.458
same,Probeset 1387693_a_at expression value,[1],4.775 and 5.713 and 5.222 and 5.079 and 4.944 and 5.129
same,Probeset 1387694_at expression value,[1],5.039 and 4.874 and 4.919 and 4.933 and 5.073 and 4.691
same,Probeset 1387822_at expression value,[1],5.838 and 6.319 and 5.874 and 5.79 and 5.5082 and 5.909
same,Probeset 1387836_at expression value,[1],6.664 and 6.515 and 7.321 and 7.12 and 6.632 and 6.906
same,Probeset 1387914_at expression value,[1],7.456 and 7.375 and 7.641 and 7.405 and 7.42 and 7.231
same,Probeset 1388131_at expression value,[1],5.482 and 5.724 and 5.628 and 5.313 and 5.378 and 5.32
same,Probeset 1388363_at expression value,[1],8.48 and 8.558 and 9.033 and 9.198 and 8.642 and 9.018
same,Probeset 1388669_at expression value,[1],7.943 and 7.729 and 8.56 and 8.668 and 8.519 and 8.408
same,Probeset 1389213_at expression value,[1],7.554 and 7.674 and 7.18 and 7.082 and 7.285 and 7.531
same,Probeset 1389599_at expression value,[1],6.535 and 6.776 and 5.918 and 6.015 and 6.327 and 6.205
same,Probeset 1390406_at expression value,[1],10.62 (2×) and 11.01 and 10.93 and 11.3 and 11.1
same,Probeset 1390477_at expression value,[1],5.088 and 5.213 and 4.637 and 4.864 and 4.99 and 4.712
same,Probeset 1390592_at expression value,[1],9.083 and 9.085 and 9.028 and 9.301
same,Probeset 1391283_at expression value,[1],5.168 and 5.671 and 5.216 and 5.355 and 5.486 and 5.461
same,Probeset 1391509_at expression value,[1],7.81 and 8.329 and 7.825 and 7.918 and 8.117 and 8.184
same,Probeset 1391678_at expression value,[1],6.728 and 7.03 and 6.037 and 5.684 and 5.954 and 6.264
same,Probeset 1391962_at expression value,[1],4.079 and 4.011 and 3.937 and 4.018 and 4.024 and 3.918
same,Probeset 1393428_at expression value,[1],6.698 and 6.377 and 7.114 and 7.29 and 7.299 and 6.755
same,Probeset 1393438_at expression value,[1],5.068 and 5.185 and 5.0534 and 5.206 and 4.959 and 5.153
same,Probeset 1394343_s_at expression value,[1],3.666 and 3.629 and 3.872 and 3.785 and 3.852 and 3.841
same,Probeset 1394383_at expression value,[1],5.713 and 6.062 and 5.324 and 5.199 and 5.6 and 5.247
same,Probeset 1394887_x_at expression value,[1],4.063 and 4.143 and 3.656 and 3.536 and 3.475 and 3.919
same,Probeset 1395817_at expression value,[1],6.714 and 6.49 and 6.649
same,Probeset 1396130_at expression value,[1],3.756 and 3.764 and 3.744 and 3.847 and 3.746 and 3.741
same,Probeset 1397268_at expression value,[1],4.565 and 5.072 and 4.482 and 4.73 and 4.645 and 4.567
same,Probeset 1397587_at expression value,[1],6.561 and 6.659 and 6.326 and 6.196 and 6.181 and 6.179
same,Probeset 1397934_at expression value,[1],8.072 and 8.118 and 7.76 and 7.912 and 7.673 and 7.856
same,Probeset 1398136_at expression value,[1],4.139 and 4.205 and 4.178 and 4.175 and 4.278 and 4.212
same,Probeset 1398486_at expression value,[1],5.62 and 5.739 and 6.477 and 7.05 and 7.673 and 6.597
same,Probeset 1398949_at expression value,[1],9.031 and 8.874 and 9.095 and 9.297 and 9.003 and 9.17
same,"expression, probeset 368199_at","placenta, SSRI-exposed samples",8.586 and 8.944 and 9.045 and 9.265 and 9.277 and 9.377
same,"expression, probeset 1367489_at","placenta, SSRI-exposed samples",7.839 and 8.052 and 7.771 and 7.614 and 7.86 and 7.738
same,"expression, probeset 1367856_at","placenta, SSRI-exposed samples",9.745 and 9.797 and 10.22 and 10.51 and 10.38 and 10.14
same,"expression, probeset 1367866_at","placenta, SSRI-exposed samples",5.591 and 5.571
same,"expression, probeset 1367877_at","placenta, SSRI-exposed samples",9.4471 and 9.923 and 9.622 and 8.883 and 9.902 and 8.73
same,"expression, probeset 1367978_at","placenta, SSRI-exposed samples",5.914 and 6.324 and 5.574 and 5.778 and 5.944 and 5.842
same,"expression, probeset 1368083_at","placenta, SSRI-exposed samples",8.501 and 8.375 and 9.053 and 8.928 and 9.103 and 8.728
same,"expression, probeset 1368397_at","placenta, SSRI-exposed samples",3.806 and 3.897 and 3.87 and 3.843 and 3.78 and 3.762
same,"expression, probeset 1368542_at","placenta, SSRI-exposed samples",6.355 and 7.586 and 6.712 and 6.347 and 6.563 and 7.001
same,"expression, probeset 1368646_at","placenta, SSRI-exposed samples",5.644 and 5.882 and 5.515 and 5.483 and 5.352 and 5.292

# Source: patent US20090087845A1, “Genetic Markers Of True Low Birth Weight” (priority 2005, published 2009)
